Our source for the IC50 values is ChEMBL document CHEMBL5241065, “If small molecules immunotherapy comes, can the prime be far behind?” (Eur J Med Chem, 2021).

This assay has as its target T1, Phosphatidylinositol 3,4,5-trisphosphate 5-phosphatase 1 (Homo sapiens, UniProt Q92835).
T1 sequence (Q92835 whole entry): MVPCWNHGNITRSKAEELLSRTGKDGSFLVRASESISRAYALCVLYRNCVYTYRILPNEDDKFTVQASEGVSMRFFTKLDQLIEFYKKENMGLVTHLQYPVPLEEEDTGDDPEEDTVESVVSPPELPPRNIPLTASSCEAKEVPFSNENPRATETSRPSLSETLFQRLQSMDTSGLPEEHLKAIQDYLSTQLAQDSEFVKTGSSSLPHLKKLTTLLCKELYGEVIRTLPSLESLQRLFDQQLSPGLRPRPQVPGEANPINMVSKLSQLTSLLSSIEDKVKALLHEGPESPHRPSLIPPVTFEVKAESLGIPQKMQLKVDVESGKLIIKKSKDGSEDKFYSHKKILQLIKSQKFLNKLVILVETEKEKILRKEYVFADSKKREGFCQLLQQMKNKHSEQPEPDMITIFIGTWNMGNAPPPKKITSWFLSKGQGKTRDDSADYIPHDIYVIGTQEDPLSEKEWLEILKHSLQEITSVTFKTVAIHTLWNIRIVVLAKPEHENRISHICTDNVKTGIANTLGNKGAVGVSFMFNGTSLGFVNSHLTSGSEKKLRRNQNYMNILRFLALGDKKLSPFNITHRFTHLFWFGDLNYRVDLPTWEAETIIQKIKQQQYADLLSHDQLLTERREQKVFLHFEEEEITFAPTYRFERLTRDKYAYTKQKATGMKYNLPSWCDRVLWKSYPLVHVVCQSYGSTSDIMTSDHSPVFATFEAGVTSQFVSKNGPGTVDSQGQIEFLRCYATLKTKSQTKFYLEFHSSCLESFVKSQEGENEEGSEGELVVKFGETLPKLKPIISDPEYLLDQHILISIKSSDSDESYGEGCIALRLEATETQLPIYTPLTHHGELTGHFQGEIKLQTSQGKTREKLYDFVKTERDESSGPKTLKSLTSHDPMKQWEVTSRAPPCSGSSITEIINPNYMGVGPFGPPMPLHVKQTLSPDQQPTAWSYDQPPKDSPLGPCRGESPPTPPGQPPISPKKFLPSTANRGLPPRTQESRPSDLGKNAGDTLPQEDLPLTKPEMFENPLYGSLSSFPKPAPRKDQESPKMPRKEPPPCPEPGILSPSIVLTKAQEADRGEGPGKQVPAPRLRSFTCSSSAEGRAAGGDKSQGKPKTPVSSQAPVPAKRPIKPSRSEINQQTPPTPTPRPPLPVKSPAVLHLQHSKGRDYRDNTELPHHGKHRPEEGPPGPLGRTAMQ
Put plainly: Inhibition of SHIP1 (unknown origin).

What is called IC50 is the concentration needed to halve the response being measured. A high value points to a need for much substance. Compound `CC(C)CCC[C@@H](C)[C@H]1CC[C@H]2[C@]3(C)CC[C@H]4C[C@H](N)CC[C@]4(C)[C@H]3CC[C@@]21C` showed an IC50 of 2.5 µM.
